Test results published in article PMC12609600, “Novel Halolactones Derived from Vanillin: Design, Synthesis, Structural Characterization, and Evaluation of Antiproliferative and Hemolytic Activities” (Molecules, 2025).
Converted amounts (≈) assume the structure as drawn. Like-named read-outs stand apart in the source and are kept apart here.

Experiments:
[1] = tested on: CLB70 cell line (canine chronic B-cell lymphocytic leukemia); assay: MTT assay, antiproliferative activity against CLB70; format: cell-based; details: for IC50: Canis lupus familiaris, CLB70, 72 h of exposure, MTT, mean ± SD; for SI CLB70: ratio IC50 NIH/3T3 / IC50 CLB70
Source text: (§1) The CLB70 cell line (canine chronic B-cell lymphocytic leukemia) was established at the Department of Pharmacology and Toxicology, Wrocław University of Environmental and Life Sciences. The CLBL-1 cell line (canine B-cell lymphoma) was kindly provided by Dr. Barbara C. Rütgen from the Institute of Immunology, Department of Pathobiology, University of Veterinary Medicine, Vienna. The T-24 (human bladder carcinoma), Caco-2 (human colorectal adenocarcinoma), and NIH/3T3 (mouse embryonic fibroblasts) cell lines were purchased from the American Type Culture Collection (ATCC, Rockville, MD, USA).
(§2) Cell cultures were maintained in their respective growth media, with fetal bovine serum (FBS) concentrations ranging from 10% to 20%, depending on the cell line. Penicillin-streptomycin (PS) and L-glutamine (L-Glu) were consistently added at 1% each to all media. CLB70 cells were cultured in RPMI ADVANCE medium supplemented with 20% FBS, while CLBL-1 cells were maintained in RPMI-1640 medium with 20% FBS. T-24 cells were cultured in McCoy′s 5A medium with 10% FBS, and Caco-2 cells in Eagle′s Minimum Essential Medium (EMEM) with 20% FBS. NIH/3T3 cells were maintained in high-glucose DMEM (DMEM HG) with 10% FBS. All cell cultures were grown in T-75 flasks under a humidified atmosphere at 37 °C and 5% CO2 and passaged every 3 days to maintain optimal cell density (70–80% confluence).
(§3) Stock solutions used in the experiments were freshly prepared for each trial by dissolving the tested compounds in biological-grade DMSO. These stock solutions were then diluted with the culture medium appropriate for each specific cell line to achieve the desired final concentrations, which ranged from 3.125 to 100 µM. The final DMSO concentration in each well was maintained below 1%, a level generally considered non-toxic to cells. The MTT assay was employed to evaluate the antiproliferative and cytotoxic effects of the compounds on cancer cell lines, following a previously described protocol with minor modifications. Cells were seeded in 96-well plates at the following densities: 1.5 × 10^4 cells/mL (NIH/3T3), 2 × 10^4 cells/mL (T-24, Caco-2), and 3 × 10^5 cells/mL (CLB70, CLBL-1). Each plate included control wells with untreated cells and wells with vehicle controls (culture medium specific to each cell line).
(§4) After 72 h of treatment with the tested compounds, 10 µL of 3-(4,5-dimethylthiazol-2-yl)-2,5-diphenyltetrazolium bromide (MTT) solution (5 mg/mL) was added to each well. The cells were subsequently incubated with MTT for an additional 3 h to allow the formation of formazan crystals. Following this, 40 µL of lysis buffer (composed of 46 g sodium dodecyl sulfate, 150 mL dimethylformamide, and 183.2 mL Milli-Q water) was added to each well to dissolve the formazan. After a 24 h incubation at room temperature, the optical density (OD) of the resulting formazan product was measured using a spectrophotometric microplate reader (Spark, Tecan, Männedorf, Switzerland) at 570 nm.
(§5) The results were determined from three independent experiments (four wells each) and presented as mean IC50 value ± SD from at least […], each performed in quadruplicate. IC50 values (the concentration of the compound required to inhibit 50% of cell growth) were calculated from dose–response curves.

[2] = tested on: T-24 (human bladder carcinoma); assay: MTT assay, antiproliferative activity against T-24; format: cell-based; details: for antiproliferative activity against T-24 (in words): 72 h, up to 100 µM; for antiproliferative activity against T-24 (in words) / IC50: MTT; for IC50: Homo sapiens, 72 h of exposure, mean ± SD; for SI T-24: ratio IC50 NIH/3T3 / IC50 T-24
Source text: as §1, §2, §3, §4, §5

[3] = tested on: CLBL-1 cell line (canine B-cell lymphoma); assay: MTT assay, antiproliferative activity against CLBL-1; format: cell-based; details: for IC50: Canis lupus familiaris, CLBL-1, 72 h of exposure, MTT, mean ± SD; for SI CLBL-1: ratio IC50 NIH/3T3 / IC50 CLBL-1
Source text: as §1, §2, §3, §4, §5

[4] = tested on: CaCo-2 (human colorectal adenocarcinoma); assay: MTT assay, antiproliferative activity against CaCo-2; format: cell-based; details: for IC50: Homo sapiens, Caco-2, 72 h of exposure, mean ± SD; for IC50 / antiproliferative activity against CaCo-2 (in words): MTT; for antiproliferative activity against CaCo-2 (in words): 72 h, up to 100 µM; for SI CaCo-2: ratio IC50 NIH/3T3 / IC50 CaCo-2
Source text: as §1, §2, §3, §4, §5

[5] = tested on: NIH/3T3 (mouse embryonic fibroblasts); assay: MTT assay, normal cell line NIH/3T3; format: cell-based; details: NIH3T3, 72 h of exposure
Source text: as §1, §2, §3, §4, §5

CLB-70 line = details: cited from earlier work
T-24 cell line = tested on: T-24 cell line; design: method as in earlier work; details: 48 h of incubation; cited from earlier work
CLBL-1 = details: 72 h of incubation; cited from earlier work
Caco-2 line = tested on: Caco-2 line; design: method as in PMID 33198146; details: 48 h of incubation; cited from earlier work
[6] = Quantitative hemolysis assay on red blood cells; format: cell-based; details: human, pH 7.4; 72 h incubation, highest concentration (200 μM)
Method: To evaluate the hemolytic activity and cytotoxicity of the tested compounds, a quantitative hemolysis assay was conducted using human red blood cells (RBCs), following the method described by Pruchnik et al., with minor modifications.
RBCs were obtained from healthy donors through the Blood Donation Center in Wrocław. […] The collected RBCs were gently resuspended and washed three times with cold isotonic phosphate-buffered saline (PBS, pH 7.4) to remove plasma and cellular debris.
All tested compounds were dissolved in biological-grade DMSO. A series of working solutions was prepared by diluting the stock solutions to final concentrations of 6.25, 12.50, 25, 50, 100, and 200 μM. […] Control samples contained no tested compounds, while vehicle control samples contained DMSO at the same concentration as the treated samples. Positive control samples (A100%) were prepared by inducing complete hemolysis with Milli-Q water. All experiments were performed in triplicate, with three independent replicates for each condition.
The erythrocyte suspension was adjusted to a final hematocrit of 1.2% in all test tubes, with a total sample volume of 1 mL. Samples were incubated at 37 °C under static conditions for 2, 24, and 72 h to assess both short- and long-term cytotoxic effects.
Following incubation, all samples were centrifuged at 5000 rpm for 3 min at room temperature. The supernatants were carefully transferred to a 96-well plate, and the absorbance of free hemoglobin was measured at 540 nm using a UV-Vis microplate spectrophotometer (EPOCH, BioTek, Santa Clara, CA, USA). The degree of in vitro hemolysis was calculated based on the amount of released hemoglobin relative to that in the completely hemolyzed positive control sample, according to the following formula: H[%]=As/A100%×100%, where H [%] is the percentage of erythrocyte hemolysis, As is absorbance of hemoglobin in supernatant at 540 nm, and A100% refers to the absorbance of hemoglobin in the supernatant following complete hemolysis of the erythrocytes.

Row | Structure (SMILES) | IC50 [1] | IC50 [2] | IC50 [3] | IC50 [4] | SI CLB70 [1] | antiproliferative activity against T-24 (in words) [2] | SI T-24 [2] | SI CLBL-1 [3] | IC50 [5] | IC50 (CLB-70 line; 48 h of incubation) | IC50 (T-24 cell line) | IC50 (CLBL-1) | IC50 Caco-2 (Caco-2 line) | hemolysis at 72 h, 200 µM [6] | antiproliferative activity against CaCo-2 (in words) [4] | SI CaCo-2 [4] | IC50 (CLB-70 line; previously studied analog, reference not given, read-out: IC50 CLB70)
1 | COc1cc([C@@H]2CC(=O)O[C@@H]2C(C)I)ccc1O (relative stereo) [10a, Cis-4-(4′-Hydroxy-3′-methoxyphenyl)-5-(1-iodoethyl)dihydrofuran-2-one] | 69.7 ± 13.7 µM | 98.1 ± 10.4 µM | 73.6 ± 8.8 µM | > 100 µM | >1.4 | demonstrated activity | >1.0 | >1.4 | > 100 µM | – | – | – | – | – | – | – | –
2 | COc1cccc2c1C(=O)c1c(O)c3c(c(O)c1C2=O)C[C@@](O)(C(=O)CO)C[C@@H]3O[C@H]1C[C@H](N)[C@H](O)[C@H](C)O1 [doxorubicin] | – | – | – | – | – | – | – | – | – | 0.07 µM | 0.06 µM | < 0.09 µM | 2.41 µg/mL (≈ 4.43 µM) | – | – | – | –
3 | COc1cc([C@@H]2CC(=O)O[C@H]2C(C)I)ccc1O (relative stereo) [10b, Trans-4-(4′-Hydroxy-3′-methoxyphenyl)-5-(1-iodoethyl)dihydrofuran-2-one] | 71.5 ± 7.5 µM | 63.4 ± 6.2 µM | 46.3 ± 4.1 µM | > 100 µM | >1.4 | demonstrated activity | >1.6 | >2.2 | > 100 µM | – | – | – | – | 11% | – | – | –
4 | COc1cc([C@@H]2CC(=O)O[C@@H]2C(C)Br)ccc1O (relative stereo) [11a, Cis-5-(1-Bromoethyl)-4-(4′-hydroxy-3′-methoxyphenyl)dihydrofuran-2-one] | 76.2 ± 5.3 µM | > 100 µM | 63.2 ± 1.6 µM | 76.4 ± 10 µM | >1.3 | inactive | – | >1.6 | > 100 µM | – | – | – | – | 10.3% | moderate activity | >1.3 | –
5 | Cc1ccc(C)c([C@H]2CC(=O)O[C@@H](C)[C@@H]2Br)c1 (single isomer, unassigned) | – | – | – | – | – | – | – | – | – | – | – | – | – | – | – | – | 106 µM
6 | COc1cc(C=O)ccc1O [compound 1, Vanillin] | 72.8 ± 2.3 µM | 48.5 ± 13.2 µM | 72.4 ± 9.4 µM | > 100 µM | >1.4 | – | >2.1 | >1.4 ^2 | > 100 µM | – | – | – | – | – | inactive | – | –

Continued, in another order:

Row | IC50 [1] | IC50 [2] | IC50 [3] | IC50 [4] | Structure (SMILES) | SI CLB70 [1] | antiproliferative activity against T-24 (in words) [2] | SI T-24 [2] | SI CLBL-1 [3] | IC50 [5] | IC50 (CLB-70 line; 48 h of incubation) | IC50 (T-24 cell line) | IC50 (CLBL-1) | IC50 Caco-2 (Caco-2 line) | hemolysis at 72 h, 200 µM [6] | antiproliferative activity against CaCo-2 (in words) [4] | SI CaCo-2 [4] | IC50 (CLB-70 line; previously studied analog, reference not given, read-out: IC50 CLB70)
7 | 71.2 ± 11.6 µM | > 100 µM | 85.7 ± 15.7 µM | 72.5 ± 19.8 µM | COc1cc([C@H]2CC(=O)O[C@@H](C)[C@@H]2Cl)ccc1O (racemic) [12b, 5-t-Chloro-4-r-(4′-Hydroxy-3′-methoxyphenyl)-6-c-methyltetrahydropyran-2-one] | >1.4 | inactive | – | >1.2 | > 100 µM | – | – | – | – | 10.5% | moderate activity | >1.4 | –
8 | 75.2 ± 6.3 µM | > 100 µM | 76.7 ± 11.5 µM | 88.1 ± 4.4 µM | COc1cc([C@@H]2CC(=O)O[C@@H]2C(C)Cl)ccc1O (relative stereo) [12a, Cis-5-(1-Chloroethyl)-4-(4′-hydroxy-3′-methoxyphenyl)dihydrofuran-2-one] | >1.3 | inactive | – | >1.3 | > 100 µM | – | – | – | – | – | moderate activity | >1.1 | –
